Measured values published in PubChem BioAssay AID1419 (Emory University Molecular Libraries Screening Center, 2008).
Calls of active or inactive are those of the source. The rule behind the calls is not given here.

Assay: EBV protein-peptide binding inhibitors, dose response, biochemical, fluorescence polarization (AID 1419)
Conditions: cell-free protein-peptide binding, 2 h; for fold change: measured here: P channel fold over control, at 54 µM

| SMILES | IC50 | fold change |
| --- | --- | --- |
| O=c1ccc2[n+]([O-])c3ccc(O)cc3oc-2c1 | 1.34 µM | 5.06 |
| c1ccc(-c2cn3nc4c(nc3n2)CCCC4)cc1 | 4.56 µM | 2.57 |
| O=c1cc2oc3cc(O)c(O)cc3c(-c3ccccc3O)c-2cc1O | 5.29 µM | 232 |
| CCN(CC)c1ccc2cc(-c3nc(-c4ccc(OC)cc4)cs3)c(=O)oc2c1 | < 0.42 µM | 58 |
| Cc1cccc(C)c1NC(=O)COC(=O)c1c2c(nc3ccccc13)/C(=C\c1ccc3c(c1)OCO3)CCC2 | > 54 µM (inactive) | 1.32 |
| CCOc1cc(Br)c(Br)c(C=Nc2ccc(NC(C)=O)cc2)c1O | 1.93 µM | 8.05 |
| O=C(C1=NN(c2ccccc2)C2C(=O)N(c3ccccc3Cl)C(=O)C12)c1ccccc1 (stereo unspecified) | 6.16 µM | 8.43 |
| O=C(O)c1ccccc1/C=N/NC(=O)c1cc(-c2ccco2)nc2ccccc12 | 30.4 µM (inactive) | 1.03 |
| O=C(Nc1ccccc1F)C(=Cc1sc(N2CCOCC2)nc1-c1ccccc1)C(=O)Nc1ccccc1F | 5.71 µM | 7.63 |
| Cc1ccc(C(=O)NN2C(=O)/C(=C/c3cn(C)c4ccccc34)SC2=S)cc1 | 3.42 µM | 6.95 |
| CN(C)CCCN1C(=O)c2cccc3c([N+](=O)[O-])ccc(c23)C1=O | 18 µM | 2.14 |
| CCN1C(=O)/C(=C/C2=Cc3ccccc3OC2C)SC1=S (stereo unspecified) | 17.2 µM | 5.33 |
| O=C1c2cccc3c(N4CCCCC4)ccc(c23)C(=O)N1c1ccccn1 | < 0.42 µM | 11.5 |
| CCOC(=O)c1oc2cc(OCC(=O)OC)ccc2c(=O)c1-c1ccc(OC)c(OC)c1 | > 54 µM (inactive) | 0.99 |
| COc1ncnc2c1NC1=C(S2)C(=NCCC(=O)O)CC(C)(C)C1 | 0.93 µM | 8.12 |
| CS(=O)(=O)Nc1nc2n(n1)C(c1ccccc1)C=C(c1ccc(Br)cc1)N2 (stereo unspecified) | 5.72 µM | 2.76 |
| COc1ccc(C2C=C(c3ccc(Br)s3)Nc3ncnn32)cc1OC (stereo unspecified) | < 0.42 µM | 24.3 |
| CC(C)(CCl)C(=O)Nc1ccc(OC(F)(F)F)cc1 | > 54 µM (inactive) | 1.14 |
| CCCCn1nc(-c2ccccc2)c2nc3ccccc3nc21 | 3.13 µM | 22.6 |
| CCn1c(COc2ccccc2C)nnc1SCC(=O)N1CCC(C)CC1 | > 54 µM (inactive) | 0.897 |

| SMILES | IC50 | fold change |
| --- | --- | --- |
| OCCNc1nc(Nc2ccc(Br)cc2)nc2ccccc12 | > 54 µM (inactive) | 0.987 |
| Cn1c(=O)c(Nc2ccc(O)cc2)c2c3c(cccc31)C(=O)c1ccccc1-2 | < 0.42 µM | 3.86 |
| COc1ccc(Cn2c3ccc(OC)cc3c3nc4ccccc4nc32)cc1 | 3.27 µM | 3.38 |
| COC(=O)C(Nc1nccs1)(OC)C(F)(F)F (stereo unspecified) | 13.8 µM | 2.09 |
| CC1=Nc2ccccc2/C1=C\c1nc(-c2ccc(F)cc2)oc1O | 1.7 µM | 19 |
| CN1Cc2c(c(C#N)c(N)n(C)c2=S)CC1(C)C | > 54 µM (inactive) | 1.89 |
| O=C(Nc1cccc(S(=O)(=O)NC2=NCCC2)c1)c1cc(-c2ccco2)nc2ccccc12 | 2.74 µM | 1.11 |
| CCOC(=O)c1[nH]cnc1N=Nc1c(O)ccc2ccccc12 | 7.35 µM | 2.68 |
| c1ccc2c(c1)CCCN2Cc1nnnn1CC1CCCO1 (stereo unspecified) | 4.98 µM | 2.55 |
| OCCCc1nc2n(n1)C(c1cccs1)C=C(c1ccccc1)N2 (stereo unspecified) | < 0.42 µM | 43.2 |
| N#C/C(=C/c1ccc(-c2ccc(S(N)(=O)=O)cc2)o1)c1nc2ccccc2s1 | > 54 µM (inactive) | 30.3 |
| COCCCn1c(=NC(=O)c2ccccc2)c(C#N)cc2c(=O)n3cccc(C)c3nc21 | 3.88 µM | 4.43 |
| CCCCN1C(=O)/C(=C/C=C2\N(C)c3ccccc3C2(C)C)SC1=S | 2.01 µM | 18.6 |
| Cc1ccc(/C=c2\sc3nc(-c4cccnc4)nn3c2=O)cc1 | > 54 µM (inactive) | 1.13 |
| CCCOc1cc(N(CC)CC)ccc1/C=C(/C#N)c1nc2ccc(C)cc2[nH]1 | 11.8 µM | 12.9 |
| CC(C)C[C@H]1C(=O)N2CCCC2[C@]2(O)O[C@](NC(=O)[C@@H]3C=C4c5cccc6[nH]cc(c56)CC4N(C)C3)(C(C)C)C(=O)N12 (stereo partly specified) | 8.52 µM | 2.39 |
| COc1cc(/C=C2\SC(=O)N(Cc3ccc(Cl)cc3)C2=O)cc([N+](=O)[O-])c1O | 24.9 µM | 1.04 |
| N#Cc1c(N)sc(=S)c2c1CCCC2 | > 54 µM (inactive) | 1.09 |
| Cc1c(C(=O)NCCSCc2c(F)cccc2Cl)cnn1-c1ccc(Cl)cc1 | > 54 µM (inactive) | 1.06 |
| CC(=O)Oc1ccc2c(c1)O/C(=C\c1ccncc1)C2=O | 3.08 µM | 10.9 |

| SMILES | IC50 | fold change |
| --- | --- | --- |
| CC1CCCN(c2nc3ccccc3nc2C(C#N)S(=O)(=O)c2ccccc2)C1 (stereo unspecified) | > 54 µM (inactive) | 1.37 |
| CC(=O)NC1C(OCCOc2ccc(Cl)cc2Cl)OC(COC(C)=O)C(OC(C)=O)C1OC(C)=O (stereo unspecified) | > 54 µM (inactive) | 1.04 |
| O=C(CSc1nc(-c2ccc(F)cc2)nc2c1Cc1ccccc1O2)Nc1ccc(C(=O)O)cc1 | 2.9 µM | 1.11 |
| C#CCOC(=O)/C(=C/C=C/c1ccccc1)NC(=O)c1ccccc1 | > 54 µM (inactive) | 1.01 |
| CN(C)CCCN1C(=O)c2cccc3c(Br)ccc(c23)C1=O | 7.44 µM | 3.2 |
| CN(c1ncc(C(F)(F)F)cc1Cl)N1C(=O)c2cccc(N)c2C1=O | 3.83 µM | 1.88 |
| COc1ccc2nc(-n3c(O)c(C4=c5ccccc5=NC4=O)[nH]c3=S)sc2c1 | 3.48 µM | 0.923 |
| O=C(CSc1nc2ncccc2[nH]1)Nc1ccc2c(c1)OCO2 | > 54 µM (inactive) | 1.02 |
| Cc1ccc(C2C3=C(CCCC3=O)Nc3[nH]c(=S)[nH]c(=O)c32)cc1 (stereo unspecified) | > 54 µM (inactive) | 0.983 |
| Cc1ccc(C(=O)Nn2c(O)c(C=C3N=c4ccccc4=N3)sc2=S)cc1 | > 54 µM (inactive) | 1.04 |
| COc1ccc(C(=O)NC2(C(F)(F)F)C(=O)N(Cc3ccco3)C3=C2C(=O)CC(C)(C)C3)cc1OC (stereo unspecified) | > 54 µM (inactive) | 1.14 |
| COCCOC(=O)c1sc(=S)n(CCOC)c1N | 3.85 µM | 2.45 |
| CC1CCCCC1NC(=O)CN1C(=O)c2cccc(N)c2C1=O (stereo unspecified) | 2.35 µM | 2.47 |
| Cn1c(=O)cc2c3c(c(N4CCCCC4)ccc31)C(=O)c1ccccc1-2 | 4.67 µM | 1.91 |
| N#C/C(=C\C=C\c1ccccc1)c1nc(-c2ccc3c(c2)OCO3)cs1 | 1.49 µM | 14.2 |
| CC1=CC(=C(C#N)c2nc3ccccc3s2)C=C(C)N1Cc1ccco1 | 3.8 µM | 15.7 |
| CN(C)c1ccc(/C=N/NC(=O)c2cnc3ccccc3c2)cc1 | 18.6 µM | 3.11 |
| CCOC(=O)Cn1c2ccc(OC)cc2c2nc3ccccc3nc21 | 0.79 µM | 6.57 |
